Measured values from US5770587A, “Antifungal agents” (Merck & Co., Inc., priority 1996, dated 1998).

Assays:
Format in all cases: cell-based
[1] = test system: Candida albicans (CA2); assay: broth microdilution assay (MIC/MFC)
Description: (§1) In the microbroth dilution assay, microorganisms were selected by streaking a yeast culture on Sabouraud dextrose agar (SDA) incubating for 24-48 hours at 35°-37° C., thereafter selected 3 to 5 characteristic colonies and transferring to a fresh plate and incubating under similar conditions. From the regrowth, 3 to 5 colonies were selected and suspended in 10 milliliters of YM broth (Difco) and incubated for 4 hours at 35°-37° C. shaking at 225 rpm. The 4 hour broth cultures were adjusted optically to 86% transmission resulting in a concentration of 1-5×10^6 cfu/ml which was further diluted 1:100 in YNBD (yeast nitrogen base with 1 % dextrose) to obtain a concentration of 1-5×10^4 cfu/ml for use as inocula.
(§2) The test compounds, Compounds I and II, were dissolved at 512 μg/ml in 10% DMSO and diluted 2× into the first well to achieve a concentration of 256 μg/ml at 5% DMSO in the first well. Compounds are subsequently serially diluted 2× and cell suspension is added to each well resulting in an additional 2× dilution of compound. 75 μl of said solution is delivered to each well in column 1 of a 96-well, U-bottomed microtiter plate. The compounds in column 1 were then serially diluted two-fold to yield concentrations from 128 μg/ml to 0.06 μg/ml.
(§3) The plates containing the diluted compounds were then inoculated with 75 μl/well of the appropriate microorganism and incubated for 48 hours at 35°-37° C. with MIC (minimum inhibitory concentration) determinations carried out after 24 hours of incubation (except Cryptococcus strains which are read at 48 hours). Growth and sterility controls for each organism and sterility checks for the compounds also were carried out.
(§4) After recording MICs at 24 hours, the microtiter plates were shaken gently to resuspend the cells. A 1.5 μl sample was transferred from each well of the 96-well microtiter plate to a single reservoir inoculum plate containing SDA. The inoculated SDA and corresponding microtiter plates were incubated for 24 hours at 35°-37° C. For Cryptococcus neoformans, SDA plates were inoculated at 48 hours after recording MICs and incubated 48 hours before reading the MFC. MFC is the lowest concentration of compound at which either no growth or growth of ≤4 colonies occur.

[2] = test system: Candida albicans (CLY539); assay: broth microdilution assay (MIC/MFC)
Description: as §1, §2, §3, §4

[3] = test system: Candida albicans (MY1055); assay: broth microdilution assay (MIC/MFC)
Description: as §1, §2, §3, §4

[4] = test system: Candida glabrata (MY1381); assay: broth microdilution assay (MIC/MFC)
Description: as §1, §2, §3, §4

[5] = test system: Candida guillermondii (MY1019); assay: broth microdilution assay (MIC/MFC)
Description: as §1, §2, §3, §4

[6] = test system: Candida parapsilosis (MY1010); assay: broth microdilution assay (MIC/MFC); settings: 24 h, 35-37° C.
Description: as §1, §2, §3, §4

[7] = test system: Candida pseudotropicalis (MY2099); assay: broth microdilution assay (MIC/MFC)
Description: as §1, §2, §3, §4

[8] = test system: Candida tropicalis (MY1012); assay: broth microdilution assay (MIC/MFC)
Description: as §1, §2, §3, §4

[9] = test system: Candida tropicalis (MY1124); assay: broth microdilution assay (MIC/MFC)
Description: as §1, §2, §3, §4

[10] = test system: Cryptococcus neoformans (MY2061); assay: broth microdilution assay (MIC/MFC)
Description: as §1, §2, §3, §4

[11] = test system: Cryptococcus neoformans (MY2062); assay: broth microdilution assay (MIC/MFC)
Description: as §1, §2, §3, §4

[12] = test system: Saccharomyces cerevisiae (MY2140); assay: broth microdilution assay (MIC/MFC)
Description: as §1, §2, §3, §4

[13] = test system: Saccharomyces cerevisiae (MY2141); assay: broth microdilution assay (MIC/MFC)
Description: as §1, §2, §3, §4

[14] = test system: Aspergillus fumigatus (MY4839); assay: broth microdilution assay (MIC)
Description: as §1, with “inocula. […]” for “inocula.”
(§5) The plates containing the diluted compounds were then inoculated with 75 μl/well of the appropriate microorganism and incubated for 48 hours at 35°-37° C. with MIC (minimum inhibitory concentration) determinations carried out after 24 hours of incubation (except Cryptococcus strains which are read at 48 hours). […]
(§6) After recording MICs at 24 hours, the microtiter plates were shaken gently to resuspend the cells. […] For Cryptococcus neoformans, SDA plates were inoculated at 48 hours after recording MICs and incubated 48 hours before reading the MFC. […]

[15] = test system: Aspergillus fumigatus (MY5668); assay: broth microdilution assay (MIC)
Description: as §1, with “inocula. […]” for “inocula.”
as §5, §6

[16] = test system: panel of fungi; assay: broth microdilution assay against a panel of fungi, comparison with amphotericin B; settings: MIC and MFC against a panel of fungi
Description: as §1, with “inocula. […]” for “inocula.”
as §5, §6

[17] = test system: Aspergillus flavus, Fusarium oxysporum, Ustilago zeae and the like; assay: agar plate inhibition zone test, filamentous fungi; settings: agar plates, 28° C. or 37° C., 24 hours, inhibition zones
[18] = SDA incubated 48 h, no growth or ≤4 colonies

CC(C)C1CCC2C1(C)CCC1(C)C3=CCC4C(C)(C(=O)O)C(O)C(O)C(O)C4(C(=O)O)C3CCC21C (centres unmarked) [Compound II]
Minimum Inhibitory Concentration (MIC) ([1]; 24 h, 35-37° C.): 8 µg/mL
Minimum Fungicidal Concentration (MFC) ([1]; no growth or ≤4 colonies): 8 µg/mL
Minimum Inhibitory Concentration (MIC) ([2]; 24 h, 35-37° C.): 8 µg/mL
Minimum Fungicidal Concentration (MFC) ([2]; no growth or ≤4 colonies): 8 µg/mL
Minimum Inhibitory Concentration (MIC) ([3]; 24 h, 35-37° C.): 8 µg/mL
Minimum Fungicidal Concentration (MFC) ([3]; no growth or ≤4 colonies): 8 µg/mL
Minimum Inhibitory Concentration (MIC) ([4]; 24 h, 35-37° C.): 8 µg/mL
Minimum Fungicidal Concentration (MFC) ([4]; no growth or ≤4 colonies): 8 µg/mL
Minimum Inhibitory Concentration (MIC) ([5]; 24 h, 35-37° C.): > 128 µg/mL
Minimum Fungicidal Concentration (MFC) ([5]; no growth or ≤4 colonies): > 128 µg/mL
Minimum Inhibitory Concentration (MIC) [6]: 32 µg/mL
Minimum Inhibitory Concentration (MIC) ([7]; 24 h, 35-37° C.): 4 µg/mL
Minimum Fungicidal Concentration (MFC) ([7]; no growth or ≤4 colonies): 4 µg/mL
Minimum Inhibitory Concentration (MIC) ([8]; 24 h, 35-37° C.): 4 µg/mL
Minimum Fungicidal Concentration (MFC) ([8]; no growth or ≤4 colonies): 8 µg/mL
Minimum Inhibitory Concentration (MIC) ([9]; 24 h, 35-37° C.): 8 µg/mL
Minimum Fungicidal Concentration (MFC) ([9]; no growth or ≤4 colonies): 8 µg/mL
Minimum Fungicidal Concentration (MFC) [10, 18]: 4 µg/mL
Minimum Inhibitory Concentration (MIC) ([10]; read at 48 h, 35-37° C.): 4 µg/mL
Minimum Fungicidal Concentration (MFC) [11, 18]: 4 µg/mL
Minimum Inhibitory Concentration (MIC) ([11]; read at 48 h, 35-37° C.): 4 µg/mL
Minimum Inhibitory Concentration (MIC) ([12]; 24 h, 35-37° C.): 4 µg/mL
Minimum Fungicidal Concentration (MFC) ([12]; no growth or ≤4 colonies): 4 µg/mL
Minimum Inhibitory Concentration (MIC) ([13]; 24 h, 35-37° C.): 4 µg/mL
Minimum Fungicidal Concentration (MFC) ([13]; no growth or ≤4 colonies): 4 µg/mL
Minimum Inhibitory Concentration (MIC) [14]: 8 µg/mL
Minimum Inhibitory Concentration (MIC) [15]: > 128 µg/mL
effective concentrations compared with amphotericin B [16]: effective at concentrations comparable to an established antifungal agent, amphotericin B
inhibition of growth of filamentous fungi [17]: effectively inhibit growth of the fungal organisms
